Data on 15 compounds can be found in paper PMC6522976, “Novel sulphonamide benzoquinazolinones as dual EGFR/HER2 inhibitors, apoptosis inducers and radiosensitizers” (Journal of Enzyme Inhibition and Medicinal Chemistry, 2019).

Each structure is given as a SMILES string. “And” between values parts separate entries of the source, which are not always exact repeats. Equal values may be shown once. Read-outs that look alike come from different tables or passages of the source.

Data set [1] deals with MDA-MB-231 breast cancer cells. Nature of the data set: MTT cytotoxicity assay against MDA-MB-231. In kind it is cell-based. Conditions: Homo sapiens, mean ± SE of three independent experiments. On the procedure:
Cells were cultured using Dulbecco’s Modified Eagle’s Medium (Invitrogen/Life Technologies) supplemented with 10% FBS (Hyclone), 10 µg/mL of insulin, and 1% penicillin–streptomycin. Cells were seeded in 96-well plate with cells density 1.2–1.8 × 10,000 cells/well, in a volume of 100 µL complete growth medium + 100 µL of the tested compound per well and the plate was incubated for 24 h before the MTT assay. […] IC50 was calculated according to the equation of Boltzmann sigmoidal concentration-response curve using Graph Pad Prism 5.
On the technique in general: Tetrazolium assays rely on reduction of a dye to a coloured formazan, in cell work by metabolically active cells.

For another data set, the target named is T1, EGFR (Homo sapiens, UniProt P00533).
T1 construct: purchased Invitrogen PV3872
T1 sequence (P00533 25-1210): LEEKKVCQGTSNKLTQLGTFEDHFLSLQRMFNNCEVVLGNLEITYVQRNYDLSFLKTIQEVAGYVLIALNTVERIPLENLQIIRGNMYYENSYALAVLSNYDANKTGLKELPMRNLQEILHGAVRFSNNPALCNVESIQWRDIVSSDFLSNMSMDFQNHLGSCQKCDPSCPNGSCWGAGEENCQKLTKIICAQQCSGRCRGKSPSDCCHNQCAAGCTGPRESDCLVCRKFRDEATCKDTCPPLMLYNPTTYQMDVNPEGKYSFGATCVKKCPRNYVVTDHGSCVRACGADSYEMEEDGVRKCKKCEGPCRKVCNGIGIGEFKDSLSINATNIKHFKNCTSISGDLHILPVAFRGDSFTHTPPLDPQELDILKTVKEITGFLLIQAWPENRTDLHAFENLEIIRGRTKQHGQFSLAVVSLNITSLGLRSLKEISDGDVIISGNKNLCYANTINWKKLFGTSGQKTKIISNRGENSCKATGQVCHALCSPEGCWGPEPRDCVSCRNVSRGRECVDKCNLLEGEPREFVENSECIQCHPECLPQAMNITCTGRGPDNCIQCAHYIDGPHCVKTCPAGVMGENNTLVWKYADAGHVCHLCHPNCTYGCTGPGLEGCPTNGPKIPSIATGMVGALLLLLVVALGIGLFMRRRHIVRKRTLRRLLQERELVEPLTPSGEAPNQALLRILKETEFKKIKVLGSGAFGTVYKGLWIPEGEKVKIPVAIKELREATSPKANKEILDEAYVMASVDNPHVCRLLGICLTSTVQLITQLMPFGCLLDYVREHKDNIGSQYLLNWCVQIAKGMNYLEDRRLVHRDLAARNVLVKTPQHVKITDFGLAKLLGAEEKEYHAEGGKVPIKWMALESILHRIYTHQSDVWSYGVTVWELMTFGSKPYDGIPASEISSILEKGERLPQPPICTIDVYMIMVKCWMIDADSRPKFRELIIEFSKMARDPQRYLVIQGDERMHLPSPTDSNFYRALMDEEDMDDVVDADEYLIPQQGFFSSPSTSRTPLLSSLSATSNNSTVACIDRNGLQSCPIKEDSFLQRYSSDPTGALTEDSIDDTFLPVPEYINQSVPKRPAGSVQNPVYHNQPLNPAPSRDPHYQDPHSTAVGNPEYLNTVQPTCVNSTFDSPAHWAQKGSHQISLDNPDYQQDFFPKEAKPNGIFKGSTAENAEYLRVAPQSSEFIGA
Put plainly: In vitro enzymatic activity assay, EGFR kinase kit. Format: biochemical. The settings on record: for % Inhibition of EGFR: concentration not given; for IC50: mean ± SE of three independent experiments. How it is done:
(§1) EGFR and HER2 kinase kits were purchased from Invitrogen. […] ATP solution and a kinase/peptide mixture were prepared. The plate was incubated for 1 h at room temperature. About […] of the developing solution was added to each well. The plate was incubated for 1 h and then read by ELISA Reader (PerkinElmer, USA). Every experiment was repeated three times. Data represented as means ± SE from three independent experiments. Curve fitting was performed using Graph Pad Prism 5.

In the next data set the target is T2, HER2 (Homo sapiens, UniProt P04626).
T2 construct: purchased Invitrogen PV3366
T2 sequence (P04626 23-1255): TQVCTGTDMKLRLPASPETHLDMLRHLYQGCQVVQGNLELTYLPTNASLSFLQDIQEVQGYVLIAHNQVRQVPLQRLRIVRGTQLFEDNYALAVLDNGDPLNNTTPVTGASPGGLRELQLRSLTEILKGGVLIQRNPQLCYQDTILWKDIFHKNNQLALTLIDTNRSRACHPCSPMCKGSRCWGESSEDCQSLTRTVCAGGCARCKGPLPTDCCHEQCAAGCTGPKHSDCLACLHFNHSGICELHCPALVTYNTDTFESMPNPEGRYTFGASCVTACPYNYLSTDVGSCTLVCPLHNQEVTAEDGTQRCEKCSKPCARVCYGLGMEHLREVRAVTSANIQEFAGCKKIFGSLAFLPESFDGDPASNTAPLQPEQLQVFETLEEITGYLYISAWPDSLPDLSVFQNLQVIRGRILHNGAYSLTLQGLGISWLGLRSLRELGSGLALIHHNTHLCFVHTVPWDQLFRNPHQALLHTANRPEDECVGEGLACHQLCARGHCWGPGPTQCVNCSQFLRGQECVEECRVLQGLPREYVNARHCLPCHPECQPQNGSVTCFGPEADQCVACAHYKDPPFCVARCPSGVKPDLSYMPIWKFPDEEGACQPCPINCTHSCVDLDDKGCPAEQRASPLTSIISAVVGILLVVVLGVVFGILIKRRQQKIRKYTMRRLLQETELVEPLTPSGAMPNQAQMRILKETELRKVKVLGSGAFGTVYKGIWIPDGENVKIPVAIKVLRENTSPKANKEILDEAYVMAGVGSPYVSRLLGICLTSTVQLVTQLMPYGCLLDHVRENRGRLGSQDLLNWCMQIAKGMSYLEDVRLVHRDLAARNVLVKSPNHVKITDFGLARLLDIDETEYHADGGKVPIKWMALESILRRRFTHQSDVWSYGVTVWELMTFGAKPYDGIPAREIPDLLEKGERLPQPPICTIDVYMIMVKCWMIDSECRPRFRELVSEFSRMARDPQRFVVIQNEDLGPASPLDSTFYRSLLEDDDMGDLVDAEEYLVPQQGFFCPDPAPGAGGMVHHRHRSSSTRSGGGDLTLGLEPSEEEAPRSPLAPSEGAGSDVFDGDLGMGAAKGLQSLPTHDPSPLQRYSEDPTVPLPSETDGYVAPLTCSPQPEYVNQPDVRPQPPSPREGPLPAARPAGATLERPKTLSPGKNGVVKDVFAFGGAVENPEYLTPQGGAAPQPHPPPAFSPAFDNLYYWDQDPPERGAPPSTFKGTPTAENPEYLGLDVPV
Nature of the data set: In vitro enzymatic activity assay, HER2 kinase kit. In kind it is biochemical. Conditions: mean ± SE of three independent experiments. On the procedure:
as §1

Another data set deals with caspase-3. Put plainly: Active caspase-3 level immunoassay. Format: cell-based, human. The settings on record: for Caspase 3: level of active caspase-3, control 53.2. On the procedure: Cover and incubate for 2 h at room temperature. […] Incubate for 1 h then add 100 µL anti-rabbit IgG HRP working solution to each well and incubate for 30 min. The absorbance of each well was measured at 450 nm.

The next data set has as its system Bax. Put plainly: Bax expression level. Conditions: MDA-MB-231 cells, compared to the control cells. Format: cell-based, human.
Another data set concerns Bcl2. Nature of the data set: Bcl2 expression level. In kind it is cell-based, human. The settings on record: MDA-MB-231 cells, compared to the control cells.
Another data set relates to MDA-MB-231 cell line. Nature of the data set: Cell cycle distribution analysis (propidium iodide, DNA cytometer). In kind it is cell-based, human. The settings on record: MDA-MB-231 cells treated at IC50; for %Apoptosis: PreG1, control 0.97; for %G2-M: control 6.44; for %S: control 23.04; for %G0-G1: control 69.55. How it is done:
Control cells with known DNA content (peripheral blood mononuclear cells) were used as a reference point for determining the DNA index for the test samples. The cells were stained with propidium iodide stain following the procedure provided by the kit then incubated at room temperature for 5 min in the dark and run on the DNA cytometer. Cell cycle distribution was calculated using […] software (Becton Dickinson Immunocytometry Systems, San Jose, CA, USA).

The nature of data set [2]: MTT cytotoxicity against normal breast cells. Format: cell-based. The settings on record: human, 184A1 normal breast cells; MTT assay. How it is done: MDA-MB-231 breast cancer cells and 184A1 normal breast cells of American Type Culture Collection were obtained from VACSERA, Egypt. Cells were cultured using Dulbecco’s Modified Eagle’s Medium (Invitrogen/Life Technologies) supplemented with 10% FBS (Hyclone), 10 µg/mL of insulin, and 1% penicillin–streptomycin. Cells were seeded in 96-well plate with cells density 1.2–1.8 × 10,000 cells/well, in a volume of 100 µL complete growth medium + 100 µL of the tested compound per well and the plate was incubated for 24 h before the MTT assay. The cell layer was rinsed with 0.25% (w/v) trypsin, 0.53 mM EDTA solution, incubated for 2 h, then the absorbance was measured at a wavelength of 570 nm[30]. IC50 was calculated according to the equation of Boltzmann sigmoidal concentration-response curve using Graph Pad Prism 5.

In a further data set the test system is MDA-MB-231 cells. Nature of the data set: Radiosensitizing activity (MTT with 8 Gy gamma irradiation). In kind it is cell-based. The settings on record: Homo sapiens, light or radiation study. How it is done: Irradiation was performed at the National Center for Radiation Research and Technology (NCRRT), Egyptian Atomic Energy Authority (EAEA), using gamma cell-40 (^137Cs) source. Compound 10 was selected to be re-evaluated for the in vitro antiproliferative activity in combination with γ-irradiation using MTT assay. Cells were incubated with compound 10 in molar concentrations of 0.01, 0.1, 1.0, and 10 µM. After 2 h, cells were subjected to a single dose of 8 Gy of γ-radiation at a dose rate of 0.758 rad/s for 17.73 min, and then the anti-proliferative activity was measured 48 h after irradiation. The IC50 of the tested compounds was calculated after irradiation.

In general, IC50 refers to the concentration that inhibits the measured activity by half. The melting point is the temperature, or range, at which the solid turns liquid.

`Cc1cc(NC(=O)CSc2nc3cc4ccccc4cc3c(=O)n2-c2ccc(S(N)(=O)=O)cc2)no1` [Compound 5, N-(5-Methylisoxazol-3-yl)-2-[(4-oxo-3–(4-sulfamoylphenyl)-3,4-dihydrobenzo[g]quinazolin-2-yl)thio]acetamide] showed a melting point of 292.4 °C. In data set [1], this compound showed a 50% inhibitory concentration (IC50) of 2.47 ± 0.08 µM. Besides, the “% Inhibition of EGFR” value on EGFR came to 42.00%.
On the same counts, the results for `NS(=O)(=O)c1ccc(-n2c(SCC(=O)Nc3nccs3)nc3cc4ccccc4cc3c2=O)cc1` [Compound 6, 2-[(4-Oxo-3-(4-sulfamoylphenyl)-3,4-dihydrobenzo[g]quinazolin-2-yl)thio]-N-(thiazol-2-yl)acetamide] are 304 °C, 23.2 ± 1.88 µM and 18.13%.
On the same counts, the results for `CCOc1ccc2nc(NC(=O)CSc3nc4cc5ccccc5cc4c(=O)n3-c3ccc(S(N)(=O)=O)cc3)sc2c1` [Compound 7, N-(6-Ethoxybenzo[d]thiazol-2-yl)-2-[(4-oxo-3-(4-sulfamoylphenyl)-3,4-dihydrobenzo[g]quinazolin-2-yl)thio]acetamide] are 255.9 °C, 26.5 ± 2.14 µM and 25.98%.
On the same counts, the results for `NS(=O)(=O)c1ccc(-n2c(SCC(=O)Nc3nc4ccc([N+](=O)[O-])cc4s3)nc3cc4ccccc4cc3c2=O)cc1` [Compound 8, N-(6-Nitrobenzo[d]thiazol-2-yl)-2-[(4-oxo-3-(4-sulfamoylphenyl)-3,4-dihydrobenzo[g]quinazolin-2-yl)thio]acetamide] are 278.3 °C, 2.91 ± 0.03 µM and 54.61%.
The compound `NS(=O)(=O)c1ccc(-n2c(SCC(=O)Nc3nnc(C(F)(F)F)s3)nc3cc4ccccc4cc3c2=O)cc1` [Compound 9, 2-[(4-Oxo-3-(4-sulfamoylphenyl)-3,4-dihydrobenzo[g]quinazolin-2-yl)thio]-N-(5-(trifluoromethyl)-1,3,4-thiadiazol-2-yl)acetamide] registered a melting point of 257 °C. In addition, in data set [1], the IC50 came out at 2.19 ± 0.05 µM. Also, the “% Inhibition of EGFR” value at EGFR amounted to 52.49%.
Consider `Cc1ccc(NC(=O)CSc2nc3cc4ccccc4cc3c(=O)n2-c2ccc(S(N)(=O)=O)cc2)cc1C` [Compound 10, N-(3,4-Dimethylphenyl)-2-[(4-oxo-3-(4-sulfamoylphenyl)-3,4-dihydrobenzo[g]quinazolin-2-yl)thio]acetamide], for which the melting point stood at 232.8 °C. The same compound gave an IC50 in data set [1] of 0.31 ± 0.01 µM. The compound further displayed an IC50 against EGFR of 3.9 ± 0.03 µM. On HER2, this compound yielded an IC50 of 5.4 ± 0.12 µM. Besides, the “Caspase 3 Folds” value in the data set with caspase-3 (increase compared to the control cells) is 10 Folds and 10.25 Folds. Moreover, the “Caspase 3” value with caspase-3 was 545.7 pg/mL. Besides, in the data set on Bax, the “Bax (Folds)” value was 9 Folds and 9.372 Folds. The “Bcl2 (Folds)” value with Bcl2 was 0.14 Folds and 0.1379 Folds. In addition, in the data set on MDA-MB-231 cell line, the “%Apoptosis” value was 14.84%, the “%G2-M” value is listed as 17.52%, the “%S” value was 18.28% and the “%G0-G1” value was determined as 49.36%. For the same compound, half-maximal inhibition in [2] (IC50 at 24 h) was put at 84.5 ± 0.72 µM. The IC50 in the data set on MDA-MB-231 cells (no irradiation, read-out: IC50 before Irradiation) came to 0.31 ± 0.01 µM. The IC50 in the data set on MDA-MB-231 cells (single dose of 8 Gy γ-radiation, measured 48 h after irradiation, read-out: IC50 after Irradiation) is 0.22 ± 0.03 µM.
Compound `Cc1ccc(C)c(NC(=O)CSc2nc3cc4ccccc4cc3c(=O)n2-c2ccc(S(N)(=O)=O)cc2)c1` [Compound 11, N-(2,5-Dimethylphenyl)-2-[(4-oxo-3-(4-sulfamoylphenyl)-3,4-dihydrobenzo[g]quinazolin-2-yl)thio]acetamide] had a melting point of 279.3 °C. Further, half-maximal inhibition in data set [1] (IC50) required 0.28 ± 0.01 µM. The compound also displayed an IC50 on EGFR of 2.55 ± 0.17 µM. The same compound had a half-maximal inhibitory concentration (IC50) on HER2 of 31.31 ± 0.31 µM.
The compound `Cc1cccc(C)c1NC(=O)CSc1nc2cc3ccccc3cc2c(=O)n1-c1ccc(S(N)(=O)=O)cc1` [Compound 12, N-(2,6-Dimethylphenyl)-2-[(4-oxo-3-(4-sulfamoylphenyl)-3,4-dihydrobenzo[g]quinazolin-2-yl)thio]acetamide] displayed a melting point of 300.5 °C. Further, in [1], the IC50 is 2.19 ± 0.09 µM. Also, the “% Inhibition of EGFR” value at EGFR worked out at 41.86%.
In turn, `Cc1cc([N+](=O)[O-])ccc1NC(=O)CSc1nc2cc3ccccc3cc2c(=O)n1-c1ccc(S(N)(=O)=O)cc1` [Compound 13, N-(2-Methyl-4-nitrophenyl)-2-[(4-oxo-3-(4-sulfamoylphenyl)-3,4-dihydrobenzo[g]quinazolin-2-yl)thio]acetamide] yielded a melting point of 293.8 °C. Besides, in data set [1], the IC50 amounted to 0.4 ± 0.01 µM. Moreover, the IC50 at EGFR came out at 10.2 ± 0.1 µM. At HER2, this compound gave an IC50 of 13.01 ± 0.09 µM.
`NS(=O)(=O)c1ccc(-n2c(SCC(=O)Nc3c[nH]c(=O)[nH]c3=O)nc3cc4ccccc4cc3c2=O)cc1` [Compound 14, N-(2,4-Dioxo-1,2,3,4-tetrahydropyrimidin-5-yl)-2-[(4-oxo-3-(4-sulfamoylphenyl)-3,4-dihydrobenzo[g]quinazolin-2-yl)thio]acetamide] displayed a melting point of 280 °C. Further, half-maximal inhibition in data set [1] (IC50) was put at 0.37 ± 0.01 µM. This compound also registered an IC50 against EGFR of 4.11 ± 0.02 µM. In addition, the IC50 against HER2 was 26.03 ± 0.22 µM.
For the compound `Cn1c(NC(=O)CSc2nc3cc4ccccc4cc3c(=O)n2-c2ccc(S(N)(=O)=O)cc2)cc(=O)n(C)c1=O` [Compound 15, N-(1,3-Dimethyl-2,6-dioxo-1,2,3,6-tetrahydropyrimidin-4-yl)-2-[(4-oxo-3-(4-sulfamoylphenyl)-3,4-dihydrobenzo[g]quinazolin-2-yl)thio]acetamide], the melting point came to 307.7 °C. Besides, it took 21.8 ± 1.63 µM to reach half-maximal inhibition in [1] (IC50). The “% Inhibition of EGFR” value at EGFR stood at 21.45%.
Taken in the same sequence, the figures for `NS(=O)(=O)c1ccc(-n2c(SCC(=O)Nc3cnccn3)nc3cc4ccccc4cc3c2=O)cc1` [Compound 16, 2-[(4-Oxo-3-(4-sulfamoylphenyl)-3,4-dihydrobenzo[g]quinazolin-2-yl)thio]-N-(pyrazin-2-yl)acetamide] were 205.7 °C, 0.32 ± 0.01 µM and 59.66%.
Taken in the same sequence, the figures for `NS(=O)(=O)c1ccc(-n2c(SCC(=O)Nc3cccc4ccccc34)nc3cc4ccccc4cc3c2=O)cc1` [Compound 17, N-(Naphthalene-1-yl)-2-[(4-oxo-3-(4-sulfamoylphenyl)-3,4-dihydrobenzo[g]quinazolin-2-yl)thio]acetamide] were 241.6 °C, 161 ± 4.69 µM and 8.71%.
On to `NS(=O)(=O)c1ccc(-n2c(SCC(=O)Nc3ccc4c(c3)C(=O)c3ccccc3C4=O)nc3cc4ccccc4cc3c2=O)cc1` [Compound 18, N-(9,10-Dioxo-9,10-dihydroanthracen-2-yl)-2-[(4-oxo-3-(4-sulfamoylphenyl)-3,4-dihydrobenzo[g]quinazolin-2-yl)thio]acetamide], for which the melting point came to 256.7 °C. The compound also returned a half-maximal inhibitory concentration (IC50) in [1] of 0.26 ± 0.01 µM. The compound further returned an IC50 against EGFR of 9.66 ± 0.08 µM. This compound also displayed a concentration for half-maximal inhibition (IC50) against HER2 of 3.2 ± 0.04 µM.
For the compound `C#Cc1cccc(Nc2ncnc3cc(OCCOC)c(OCCOC)cc23)c1` [Erlotinib, N-(3-ethynylphenyl)-6,7-bis(2-methoxyethoxy)quinazolin-4-amine, reference compound], in the data set with caspase-3, the “Caspase 3” value worked out at 480.1 pg/mL. For the same compound, in the data set with MDA-MB-231 cell line, the “%Apoptosis” value is 17.33%, the “%G2-M” value came to 24.81%, the “%S” value was 16.31% and the “%G0-G1” value worked out at 41.55%. This compound showed an IC50 at 24 h in data set [2] of 102 ± 3.55 µM.
